Source: patent US5736529A, “Use of NAD-related compounds in the treatment of neural trauma to inhibit neurodegeneration” (priority 1996, dated 1998)

What was measured:
[1] = tested on: DNA in brain regions of C57BL/6 mice; test: Second experiment, tBuOOH induced DNA fragmentation (FIG. 2, FIG. 3); type: in vivo, mouse (male C57BL/6)
Experimental: A second experiment was conducted to measure the degree of DNA fragmentation. […] Male C57BL/6 mice, of ages 2, 8 or 24 months old, were treated with tBuOOH ICV. Mice in the 20 minute group were treated with 110 mg/kg of tBuOOH and maintained for 20 minutes until brains were removed and analyzed for DNA fragmentation. This dose of tBuOOH induces cellular necrosis in a number of brain regions. Mice in the 48 hour group were given 22 mg/kg of tBuOOH and maintained for 48 hours. This dose of tBuOOH induces apoptosis and a small amount of necrosis in a number of brain regions.

[2] = tested on: NAD; conditions: 110 mg/kg ICV; 8 month old mice
Experimental: Male C57 B 1/6 mice, 8 months old, were treated ICV with tBuOOH (110 mg/kg) and maintained for 2, 5, 20 or 120 minutes. Anesthetized tBuOOH treated mice were immersed in liquid nitrogen to freeze their brains. The frozen brains were removed and dissected over dry ice. The brain regions were homogenized and analyzed by HPLC to determine NAD, NADH, NADP and NADPH levels as described previously. It is very important to stabilize the pyridine dinucleotides to prevent artifactual oxidation. NAD and NADP were stabilized by homogenization of brain regions in a cyanide containing solution. The cyanide reacts with the compounds forming cyano adducts that are stable. NADPH and NADH were stabilized by homogenizing brain regions in basic solution. NADPH and NADH are stable in base. Fortunately, the cyanide reaction proceeds optimally in base. Therefore, use of basic cyanide solutions during the homogenization produced optimal stabilization of NAD, NADP, NADH and NADPH. Following extraction with chloroform, centrifugation at 12,000 g for 5 minutes at 5° C., and filtration through 0.45μ positively charged nylon filters to remove DNA, the supernatants were injected onto a reverse phase HPLC column ("REXCHROME" ODS 5μ, Regis, Morton Grove, Ill.). Fluorescence detection (330 nm, excitation, 460 nm emission) was used to detect fluorescent NADH, NADPH and the cyano adducts of NAD and NADP.

[3] = tested on: 24 month old mice; conditions: 24 month old mice; 21.9 mg/kg t-BuOOH only
[4] = tested on: C57BL/6 mice; test: Behavior and survival of mice after ICV tBuOOH; type: in vivo, mouse (male C57BL/6)
Experimental: (§1) In general male C57BL/6 mice (2, 8 or 24 months old) were anesthetized with ketamine and xylazine (200 and 2 mg/kg, ip). They were injected ICV with tBuOOH in doses of approximately 22 or 110 mg/kg. This amounts to 1 or 5 μl of a 70% solution of tBuOOH injected slowly into a lateral cerebral ventricle. A mouse brain weighs about 400 mg. […] Animals recovered from anesthesia about 30 minutes or so after tBuOOH administration. […] Low dose mice survived for 48 hours or more.

[5] = in vivo; cited from earlier work
[6] = tested on: DNA in brain sections of C57BL/6 mice; test: DNA fragmentation in brain regions upon treatment with tBuOOH (Tables 1 and 2); type: in vivo, mouse (C57BL/6); conditions: for Fraction of damaged DNA, Cerebellum / Fraction of damaged DNA, Cortex / Fraction of damaged DNA, Hippo / Fraction of damaged DNA, Midbrain / Fraction of damaged DNA, Striatum / Fraction of damaged DNA, Thalamus: mean ± SD
Experimental: as §1
Young adult (2 month old) and mature (8 month old) C57BL/6 mice were divided into 7 groups with 8 animals in the control group and 4 animals in each of the other groups for both the age groups. A dose of 109.7 mg/kg of tBuOOH was administered ICV, to three groups of mice of both age groups. See Tables 1 and 2. tBuOOH was injected ICV following the technique described in Popick^2. The experiments ended 2 minutes, 5 minutes and 20 minutes after injection of tBuOOH. In the second set of experiments, 21.9 mg/kg of the toxin was administered ICV in the other three groups of mice with experimental durations of 12 hours, 24 hours and 48 hours respectively. The controls were treated with saline rather than tBuOOH.
The brains were removed after the allotted time period and sectioned immediately into the following sections: cortex, striatum, hippocampus, thalamus, midbrain and cerebellum.

[7] = tested on: glutathione peroxidase; conditions: cited from earlier work
[8] = 2 month old mice, 21.9 mg/kg ICV, 12 hours
[9] = 2 month old mice, 21.9 mg/kg ICV, 24 hours
[10] = 2 month old mice, 21.9 mg/kg ICV, 48 hours
[11] = 2 month old mice, 109.7 mg/kg ICV, 2 min
[12] = 2 month old mice, 109.7 mg/kg ICV, 2 min, * p<0.05 vs control
[13] = 2 month old mice, 109.7 mg/kg ICV, 5 min
[14] = 2 month old mice, 109.7 mg/kg ICV, 20 min
[15] = 2 month old mice, 109.7 mg/kg ICV, 20 min, * p<0.05 vs control
[16] = 8 month old mice, 21.9 mg/kg ICV, 12 hours
[17] = 8 month old mice, 21.9 mg/kg ICV, 24 hours
[18] = 8 month old mice, 21.9 mg/kg ICV, 48 hours
[19] = 8 month old mice, 109.7 mg/kg ICV, 2 min
[20] = 8 month old mice, 109.7 mg/kg ICV, 5 min
[21] = 8 month old mice, 109.7 mg/kg ICV, 20 min
[22] = 8 month old mice, 109.7 mg/kg ICV, 20 min, * p<0.05 vs control

SMILES: CC(C)(C)OO [tBuOOH, t-butylhydroperoxide]
- DNA fragmentation in the cerebellum ([1]; 2, 8 and 24 month old mice, 48 hours): increased significantly
- DNA fragmentation in the cortex ([1]; 2 and 8 month old mice): no increase in DNA fragmentation in the cortex
- DNA fragmentation in the striatum, midbrain and hippocampus ([1]; 2 month old mice): increased DNA fragmentation
- tBuOOH induced necrosis in the thalamus at 20 minutes ([1]; 8 and 24 month old vs 2 month old mice): 8 and 24 month old mice are more sensitive than 2 month old mice
- DNA fragmentation in the cortex ([1]; 24 month old mice, also found in the hippocampus): robust increase in DNA fragmentation in the cortex
- apoptosis induced DNA fragmentation in the thalamus ([1]; 48 hours after tBuOOH): found only in 24 month old mice
- time of appearance of DNA fragments in the brain ([1]; after tBuOOH administration): ≤ 2 min
- NAD levels after tBuOOH [2]: slowly and partially depleted
- deaths [3]: Three out of six
- behavior of low dose animals ([4]; about 22 mg/kg ICV): move about freely and resemble mice treated ICV with 0.9% saline
- appearance of high dose mice and death ([4]; about 110 mg/kg ICV): frequently appeared inactive until death
- time of death after treatment ([4]; high dose (about 110 mg/kg ICV)): about 2 hours
- survival ([4]; low dose (about 22 mg/kg ICV)): ≥ 48 h
- brain permeation [5]: readily permeate throughout the brain
- effect on cortex DNA ([6]; 2 and 8 month old mice, high or low dose): not affected
- DNA damage in all other brain sections ([6]; 2 and 8 month old mice, high or low dose or both): some vulnerability
- Fraction of damaged DNA, Cerebellum [6, 8]: 0.65 ± 0.19 per gram of tissue
- Fraction of damaged DNA, Cortex [6, 8]: 0.53 ± 0.16 per gram of tissue
- Fraction of damaged DNA, Hippo [6, 8]: 0.40 ± 0.16 per gram of tissue
- Fraction of damaged DNA, Midbrain [6, 8]: 0.83 ± 0.58 per gram of tissue
- Fraction of damaged DNA, Striatum [6, 8]: 1.13 ± 0.49 per gram of tissue
- Fraction of damaged DNA, Thalamus [6, 8]: 1.29 ± 0.39 per gram of tissue
- Fraction of damaged DNA, Cerebellum [6, 9]: 0.93 ± 0.36 per gram of tissue
- Fraction of damaged DNA, Cortex [6, 9]: 0.47 ± 0.13 per gram of tissue
- Fraction of damaged DNA, Hippo [6, 9]: 0.31 ± 0.04 per gram of tissue
- Fraction of damaged DNA, Midbrain [6, 9]: 1.23 ± 0.12 per gram of tissue
- Fraction of damaged DNA, Striatum [6, 9]: 1.16 ± 0.31 per gram of tissue
- Fraction of damaged DNA, Thalamus [6, 9]: 1.44 ± 0.76 per gram of tissue
- Fraction of damaged DNA, Cortex [6, 10]: 0.73 ± 0.03 per gram of tissue
- Fraction of damaged DNA, Hippo [6, 10]: 0.50 ± 0.09 per gram of tissue
- Fraction of damaged DNA, Midbrain [6, 10]: 1.24 ± 0.13 per gram of tissue
- Fraction of damaged DNA, Striatum [6, 10]: 1.66 ± 0.33 per gram of tissue
- Fraction of damaged DNA, Thalamus [6, 10]: 1.25 ± 0.14 per gram of tissue
- Fraction of damaged DNA, Cerebellum ([6]; 2 month old mice, 21.9 mg/kg ICV, 48 hours, * p<0.05 vs control, 1 p<0.05 vs other age group): 1.29 ± 0.12 per gram of tissue
- significant damage in the hippocampus ([6]; 2 month old mice, 109.7 mg/kg): significant damage was seen 2 minutes and 20 minutes after injection
- Fraction of damaged DNA, Cerebellum [6, 11]: 1.17 ± 0.25 per gram of tissue
- Fraction of damaged DNA, Cortex [6, 11]: 0.84 ± 0.33 per gram of tissue
- Fraction of damaged DNA, Striatum [6, 11]: 2.00 ± 0.45 per gram of tissue
- Fraction of damaged DNA, Hippo [6, 12]: 0.66 ± 0.09 per gram of tissue
- Fraction of damaged DNA, Midbrain [6, 12]: 2.48 ± 1.02 per gram of tissue
- Fraction of damaged DNA, Thalamus [6, 12]: 2.66 ± 0.33 per gram of tissue
- Fraction of damaged DNA, Cerebellum [6, 13]: 0.88 ± 0.20 per gram of tissue
- Fraction of damaged DNA, Cortex [6, 13]: 0.82 ± 0.23 per gram of tissue
- Fraction of damaged DNA, Hippo [6, 13]: 0.41 ± 0.05 per gram of tissue
- Fraction of damaged DNA, Midbrain [6, 13]: 1.71 ± 0.77 per gram of tissue
- Fraction of damaged DNA, Striatum [6, 13]: 1.66 ± 0.52 per gram of tissue
- Fraction of damaged DNA, Thalamus ([6]; 2 month old mice, 109.7 mg/kg ICV, 5 min, * p<0.05 vs control): 2.85 ± 0.83 per gram of tissue
- Fraction of damaged DNA, Cortex [6, 14]: 0.76 ± 0.26 per gram of tissue
- Fraction of damaged DNA, Thalamus [6, 14]: 2.46 ± 0.65 per gram of tissue
- Fraction of damaged DNA, Cerebellum [6, 15]: 1.39 ± 0.51 per gram of tissue
- Fraction of damaged DNA, Hippo [6, 15]: 0.66 ± 0.14 per gram of tissue
- Fraction of damaged DNA, Midbrain [6, 15]: 3.09 ± 0.28 per gram of tissue
- Fraction of damaged DNA, Striatum [6, 15]: 2.56 ± 0.49 per gram of tissue
- hippocampus damage at 5 minutes compared with other age group ([6]; 2 month old vs 8 month old mice, 109.7 mg/kg): significantly lower
- significant damage in the cerebellum, early ([6]; 8 month old mice after 5 and 20 minutes, 2 month old mice after 20 minutes): Significant damage was observed after 5 minutes and 20 minutes, in the case of the 8 month old cerebellum and after 20 minutes in the 2 month old cerebellum
- Fraction of damaged DNA, Cerebellum [6, 16]: 0.69 ± 0.15 per gram of tissue
- Fraction of damaged DNA, Cortex [6, 16]: 0.61 ± 0.10 per gram of tissue
- Fraction of damaged DNA, Hippo [6, 16]: 0.46 ± 0.17 per gram of tissue
- Fraction of damaged DNA, Midbrain [6, 16]: 0.76 ± 0.24 per gram of tissue
- Fraction of damaged DNA, Striatum [6, 16]: 1.17 ± 0.33 per gram of tissue
- Fraction of damaged DNA, Thalamus [6, 16]: 1.08 ± 0.30 per gram of tissue
- Fraction of damaged DNA, Cerebellum [6, 17]: 0.67 ± 0.16 per gram of tissue
- Fraction of damaged DNA, Cortex [6, 17]: 0.65 ± 0.13 per gram of tissue
- Fraction of damaged DNA, Hippo [6, 17]: 0.46 ± 0.05 per gram of tissue
- Fraction of damaged DNA, Midbrain [6, 17]: 1.05 ± 0.35 per gram of tissue
- Fraction of damaged DNA, Striatum [6, 17]: 0.99 ± 0.06 per gram of tissue
- Fraction of damaged DNA, Thalamus [6, 17]: 0.75 ± 0.27 per gram of tissue
- Fraction of damaged DNA, Cortex [6, 18]: 0.69 ± 0.10 per gram of tissue
- Fraction of damaged DNA, Hippo [6, 18]: 0.55 ± 0.06 per gram of tissue
- Fraction of damaged DNA, Midbrain [6, 18]: 1.05 ± 0.13 per gram of tissue
- Fraction of damaged DNA, Striatum [6, 18]: 1.15 ± 0.12 per gram of tissue
- Fraction of damaged DNA, Thalamus [6, 18]: 1.65 ± 0.13 per gram of tissue
- Fraction of damaged DNA, Cerebellum ([6]; 8 month old mice, 21.9 mg/kg ICV, 48 hours, * p<0.05 vs control): 1.01 ± 0.11 per gram of tissue
- significant damage in the hippocampus ([6]; 8 month old mice, 109.7 mg/kg): significant damage was seen within 5 minutes
- Fraction of damaged DNA, Cerebellum [6, 19]: 0.80 ± 0.09 per gram of tissue
- Fraction of damaged DNA, Cortex [6, 19]: 0.87 ± 0.17 per gram of tissue
- Fraction of damaged DNA, Hippo [6, 19]: 0.69 ± 0.14 per gram of tissue
- Fraction of damaged DNA, Midbrain [6, 19]: 2.24 ± 0.66 per gram of tissue
- Fraction of damaged DNA, Striatum [6, 19]: 1.56 ± 0.27 per gram of tissue
- Fraction of damaged DNA, Thalamus ([6]; 8 month old mice, 109.7 mg/kg ICV, 2 min, * p<0.05 vs control): 2.29 ± 0.78 per gram of tissue
- Fraction of damaged DNA, Cortex [6, 20]: 0.67 ± 0.16 per gram of tissue
- Fraction of damaged DNA, Midbrain [6, 20]: 1.93 ± 0.26 per gram of tissue
- Fraction of damaged DNA, Striatum [6, 20]: 1.63 ± 0.47 per gram of tissue
- Fraction of damaged DNA, Thalamus [6, 20]: 1.86 ± 0.58 per gram of tissue
- Fraction of damaged DNA, Cerebellum ([6]; 8 month old mice, 109.7 mg/kg ICV, 5 min, * p<0.05 vs control): 1.15 ± 0.12 per gram of tissue
- Fraction of damaged DNA, Hippo ([6]; 8 month old mice, 109.7 mg/kg ICV, 5 min, * p<0.05 vs control, 1 p<0.05 vs other age group): 0.81 ± 0.20 per gram of tissue
- Fraction of damaged DNA, Cortex [6, 21]: 0.70 ± 0.19 per gram of tissue
- Fraction of damaged DNA, Hippo [6, 21]: 0.67 ± 0.15 per gram of tissue
- Fraction of damaged DNA, Cerebellum [6, 22]: 1.46 ± 0.36 per gram of tissue
- Fraction of damaged DNA, Midbrain [6, 22]: 2.98 ± 0.85 per gram of tissue
- Fraction of damaged DNA, Striatum [6, 22]: 2.38 ± 0.41 per gram of tissue
- Fraction of damaged DNA, Thalamus [6, 22]: 2.77 ± 0.30 per gram of tissue
- significant DNA damage in the thalamus ([6]; both age groups): significant DNA damage was found after 2 minutes
- significant damage in the midbrain ([6]; both age groups): significant damage was found after 20 minutes
- significant damage in the cerebellum at 48 hours ([6]; both age groups, 2 month old significantly greater than 8 month old): significant damage was observed in the cerebellum at the end of 48 hours
- significant DNA damage in the striatum ([6]; both age groups, high dose): significant DNA damage was found only after 20 minutes
- detoxification by glutathione peroxidase [7]: detoxified by glutathione peroxidase
